Results from US9066922B2, “Pharmaceutical composition for the treatment or prevention of diseases involving obesity, diabetes, metabolic syndrome, neuro-degenerative diseases and mitochondria dysfunction diseases” (MD BIOALPHA CO., LTD., priority 2005, dated 2015).

Key:
[1] = tested on: DIO C57BL/6 mice; experiment: Physical endurance (swimming test) in DIO C57BL/6 mice; type: in vivo; details: single administration, 3 hours later, vs control group
Experimental: This Example was intended to measure difference in physical endurance of mice through a swimming test. For this purpose, water was placed in a cylindrical trough having a diameter of 9.5 cm and height of 25 cm, and β-lapachone was administered to DIO C57BL/6 mice. 3 hours later, a sample-administered group and a control group were placed simultaneously into each cylindrical trough for measurement, and physical endurance of each group was compared.

[2] = tested on: DIO C57BL/6 mice; experiment: Respiratory Quotient (RQ), indirect calorimeter; type: in vivo; details: measured for 7 hours, vs vehicle-administered group and control group
Experimental: FIG. 24 is a graph showing effects of β-lapachone on Respiratory Quotient (RQ) after administration of β-lapachone to DIO C57BL/6 mice.
This Example was intended to examine effects of β-lapachone on fat metabolism via measurement of Respiratory Quotient (RQ). Oxygen consumption and carbon dioxide production were measured using an Oxyscan open-circuit indirect calorimeter (AccuScan Instruments, Columbus, Ohio). This apparatus consisted of enclosed acrylic chambers (21×21×21 cm). Fresh air was drawn into each chamber at a rate of 1500 ml/min and then O2 and CO2 were allowed to pass through detectors. The concentrations of the gases were recorded in ml/kg body weight/min. RQ was calculated as the volume of CO2 produced (VCO2) divided by the volume of O2 consumed (VO2). A β-lapachone-administered group, a vehicle-administered group and a control group were placed in each apparatus, and RQ was measured for 7 hours. For acclimation of animal to new environment, mice were placed in the apparatus 2 hours prior to measurement.

[3] = tested on: transcripts of Sirtuin (SIRT) genes; experiment: Expression of SIRT-related transcripts in DIO mice; type: in vivo, C57BL/6 mice; details: 50 mg/kg daily oral, gonadal adipose tissues, days 7, 28 and 56
Experimental: β-lapachone was administered daily to diet-induced obesity (DIO) mice at a dose of 50 mg/kg via an oral route, and levels of transcripts of Sirtuin (SIRT) (36,37) genes in gonadal adipose tissues were measured on days 7, 28 and 56 of administration, respectively, using real-time quantitative PCR. Referring to SIRT-related transcripts shown in FIG. 12, there are known 7 species of transcripts in humans.

[4] = tested on: mRNAs of PPAR alpha, PPAR gamma, AOX, AMPK alpha 1 and 2, CPT1; experiment: Expression of genes involved in energy metabolism in DIO mice; type: in vivo, C57BL/6 mice; details: 50 mg/kg daily oral
Experimental: β-lapachone was administered daily to diet-induced obesity (DIO) mice at a dose of 50 mg/kg via an oral route, and levels of transcripts of genes involved in energy metabolism in the liver and gonadal adipose tissues were measured using real-time quantitative PCR. Referring to enzymes shown in FIG. 11, PPAR alpha and gamma are enzymes responsible for transcriptional regulation of enzymes involved in energy expenditure (30,31), AMPK plays a central role in the maintenance of cell energy homeostasis by sensing the intracellular AMP/ATP ratio, and AOX catalyzes to activate oxidative phosphorylation via oxidation of acyl CoA which resides in a certain step of a lipid metabolism process (32,33). In addition, CPT1 is also an enzyme involved in energy metabolism, and is well-known as an enzyme that enables the passage of long chain acyl CoA into mitochondria, not taking a route toward synthesis of triacylglycerol (34,35). […] Increased expression levels of such genes show the possibility that β-lapachone can be as therapeutic for the treatment of energy metabolism-related diseases.

[5] = tested on: mRNAs of ACC1, ACC2, FAS, LPL, SCD1; experiment: Expression of genes involved in lipid metabolism in DIO mice (real-time quantitative PCR); type: in vivo, C57BL/6 mice; details: 50 mg/kg daily oral, vs control group
Experimental: In order to investigate anti-obesity effects of β-lapachone, β-lapachone was administered daily to diet-induced obesity (DIO) mice at a dose of 50 mg/kg via an oral route, and an attempt was made to confirm levels of mRNAs of acetyl CoA carboxylase (ACC) 1 (7,8), ACC2 (9), fatty acid synthase (FAS) (10,11), lipoprotein lipase (LPL) (12-15), and stearoyl-CoA desaturase 1 (SCD1) (16,17), which participate in lipid metabolism in the liver and gonadal adipose tissues, by real-time quantitative PCR. These enzymes are very important for lipid metabolism; it is known that ACC catalyzes formation of malonyl CoA from acetyl CoA, FAS catalyzes formation of palmitate from malonyl CoA, and SCD1 catalyzes formation of monounsaturated fat, thus playing a critical role in formation of triacylglycerol, a major energy store. As such, these enzymes are closely correlated with obesity, diabetes, and lipid metabolism-related diseases. […] Therefore, from the results of such increased or decreased expression of genes for the above-mentioned enzymes, it can be inferred that β-lapachone will be therapeutically effective substance for the treatment of metabolic syndromes.

[6] = liver and gonadal adipose tissues

CC1(C)CCC2=C(O1)c1ccccc1C(=O)C2=O [Compound 1, β-Lapachone]
swimming duration [1]: more than two-fold swimming duration
Respiratory Quotient (RQ) [2]: significant difference in a RQ value
SIRT2 transcript level [3]: did not exhibit any noticeable difference
SIRT3 transcript level [3]: significantly increased
SIRT5 transcript level [3]: did not exhibit any noticeable difference
SIRT6 transcript level [3]: significantly increased
SIRT7 transcript level [3]: did not exhibit any noticeable difference
SITR1 transcript level [3]: significantly increased
PPAR alpha mRNA level [4, 6]: not changed
PPAR gamma mRNA level [4, 6]: about two-fold increases
AMPK alpha 1 mRNA level ([4]; vs control group): increased levels in mRNAs
AMPK alpha 2 mRNA level ([4]; vs control group): increased levels in mRNAs
acyl CoA oxidase (AOX) mRNA level ([4]; vs control group): increased levels in mRNAs
carnitine palmitoyltransferase 1 mRNA level ([4]; vs control group): increased levels in mRNAs
expression level of mRNA of ACC1 [5, 6]: remarkably decreased
expression level of mRNA of ACC2 [5, 6]: remarkably decreased
expression level of mRNA of FAS [5, 6]: remarkably decreased
expression level of mRNA of LPL (listed among decreased) [5, 6]: remarkably decreased
expression level of mRNA of SCD1 [5, 6]: remarkably decreased
LPL mRNA levels, increase [5]: 2 fold
